# From the METLIN SMRT retention time set (Domingo-Almenara et al. 2019)
# Assay: gradient 5% acetonitrile 3 min, to 50% in 2 min, to 85% in 15 min, held 3 min, 100 µL/min
# Conditions: column: Zorbax Extend-C18 2.1 x 50 mm; eluents: water / acetonitrile, 0.1% formic acid
# In short: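 Retention times come from adduct peaks that were picked computationally and then checked by hand. The standards, pure and pooled in mixtures of ~100 molecules, were run on a Zorbax Extend-C18 column (2.1 × 50 mm, 1.8 μm) at 100 μL/min with water and acetonitrile, each with 0.1% formic acid. Detection was by quadrupole time-of-flight mass spectrometry in positive and negative ionization mode, with a dead volume of 40 μL and a dwell volume of 900 μL.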
row,RP-LC retention time [s],Compound
1,818,CN(C)c1nc(C(=O)N2CCN(c3cccc(Cl)c3)CC2)nc2c1cnn2C
2,683,Cc1ccc(C)c(NC(=O)Cn2cnc3nc(N4CCCC(C(=O)NC5CC5)C4)sc3c2=O)c1 (stereo not given)
3,796,CSc1ccc(Cl)c(C(=O)N2CC(=O)Nc3ccccc32)c1
4,826,Cc1cc(C)c(NC(=O)C2CCN(c3c(C(=O)N4CCOCC4)cnc4snc(C)c34)CC2)c(C)c1
5,787,CC(C)n1c(-c2cccc(C(=O)NCc3cccs3)c2)nc2cccnc21
6,964,CCC(c1cccs1)N1C(=O)[C@H]2CN(S(=O)(=O)Cc3ccccc3)C[C@H]2C1=O (stereo not given in full)
7,1060,CCC(C)n1c(=O)c2ccccc2n(Cc2nc(-c3ccc(OC)c(OC)c3)no2)c1=O (stereo not given)
8,855,O=C(NCCc1csc(-c2cccs2)n1)C1CCN(S(=O)(=O)Cc2ccccc2)CC1
9,987,CCSc1nc2ccc(NS(=O)(=O)c3ccc4c(c3)OCCO4)cc2s1
10,1310,CCc1ccc(OCc2nc(C)c(C(=O)Nc3nc(-c4ccccc4OC)cs3)s2)cc1
11,928,O=C(CNC(=O)c1cc2ccccc2o1)Nc1cccc(C(F)(F)F)c1
12,917,O=C(NC1CCCCCC1)c1nc(Nc2ccccc2)c2ccccc2n1
13,989,Cc1cccc(NC(=O)CSc2nnc3c4cc(-c5ccc(C)c(C)c5)nn4ccn23)c1
14,659,CCOC(=O)N1CCN(C2CC(=O)N(CCc3ccc(OC)c(OC)c3)C2=O)CC1 (stereo not given)
15,793,CC(C)n1cnc2ccc(-c3noc(-c4ccccc4)n3)cc21
16,573,O=C(CCCN1C(=O)C(c2ccccc2)Oc2cccnc21)NCCCN1CCCCC1 (stereo not given)
17,1000,CCN(Cc1ccccc1)C(=O)CN1C(=O)CCc2cc(Br)ccc21
18,854,Cc1cccc(NC(=O)N2CCc3c(c(-c4nnc(-c5ccc(F)cc5)o4)nn3C)C2)c1C
19,954,CSc1cccc(NC(=O)C2CCC(=O)N2S(=O)(=O)c2ccc(C)cc2)c1 (stereo not given)
20,595,CC(C)CC(=O)Nc1ccc(N2CCN(CC(=O)N(C)C)CC2)cc1C(=O)O
21,595,COc1ccc(CC(=O)N2CCC(Nc3ncnc4c3CCC4)C2)cc1 (stereo not given)
22,834,O=C(NCCS(=O)(=O)N1CCN(c2ccc(F)cc2)CC1)c1cccc([N+](=O)[O-])c1
23,795,Cc1ccccc1Nc1c(-c2ccc(N3CCOCC3)cc2)nc2ccc(Br)cn12
24,810,COc1ccc2nc(NC(=O)Cc3csc4nc(-c5ccccc5)cn34)sc2c1

# More lines, now with the values behind:
row,Compound,RP-LC retention time [s]
1,CC1CCN(C(=O)CS(=O)Cc2cnn(-c3ccccc3)c2-n2cccc2)CC1 (stereo not given),828
2,CCSc1nc2ccc(NS(=O)(=O)Cc3cc(C)ccc3C)cc2s1,1150
3,O=C(CN1CCN(c2ccccn2)CC1)N1c2ccccc2Sc2ccccc21,652
4,Cc1cccc(OCCc2noc(C3CN(Cc4ccc(C)s4)C3)n2)c1,761
5,CCOC(=O)c1c(S(=O)(=O)N2CCC(C(=O)Nc3ccccc3OC)CC2)c(C)n(CC)c1C,891
6,Cc1cnc(-c2ccncc2)n1C1CCCN(S(=O)(=O)c2cn(C)cn2)C1 (stereo not given),557
7,CSc1ccc(C(=O)NC2CCCCC2NC(=O)CNC(=O)c2cc(C(F)(F)F)ccc2NC(=O)NC(C)C)cc1 (stereo not given),924
8,C#CCOc1ccc2c(c1)c(-c1ccc(C(C)C)cc1)nc(=O)n2C(C)C,1160
9,COc1ccc(-c2noc(C3CCCN3C(=O)Nc3ccc(OC)c(OC)c3)n2)cc1 (stereo not given),952
10,COc1ccc(N2CCN(c3nc(C(=O)NCCN4CCOCC4)cs3)CC2)cc1,615
11,CCOc1ccc(CC(=O)N2CC(=O)Nc3ccccc32)cc1,706
12,O=S(=O)(Nc1cccc(F)c1)c1ccc(-c2nnc(C3CCC3)o2)o1,856
13,Cc1noc(C)c1C1CCCN1C(=O)Nc1ccccc1C(F)(F)F (stereo not given),879
14,COC(=O)c1sc2ccc(NC(=O)C3CCN(S(=O)(=O)N4CCOCC4)CC3)cc2c1OC,853
15,O=C(Cc1c[nH]c2ccccc12)NC1(c2nc(-c3ccncc3)no2)CCCCC1,807
16,Cc1oc(-c2[nH]ncc2C(=O)N2CCCC2)cc1S(=O)(=O)N(C)C,620
17,CC(=O)N1CCC(c2nc(-c3ccc4oc(-c5ccccc5)nc4c3)no2)CC1,987
18,COc1ccc([N+](=O)[O-])cc1NC(=O)Cc1ccc(S(C)(=O)=O)cc1,695
19,CCCC(=O)Nc1nnc(SCc2nnc(-c3ccc4c(c3)OCO4)o2)s1,794
20,C=CCNC(=O)c1cnn(-c2ccc(-c3nc(C(C)(C)C)no3)cn2)c1C,759
21,CCc1nnc(-c2nnc(N3CCCC3)c3ccccc23)o1,625

row,Compound,RP-LC retention time [s]
1,Cc1ccc(N2CCC(NC(=O)c3ccccc3)C2=O)cc1 (stereo not given),794
2,O=C(NCc1ccccc1Cl)c1ccc(NC(=O)C2CCC2)cc1N1CCOCC1,873
3,O=C(NC1CC1)c1cc(-c2cccs2)on1,788
4,O=C(O)c1cn2ccnc(-c3ccc(F)cc3)c2n1,688
5,CCOC(=O)CC1=CC(SCC(=O)N(C)c2ccccc2)=Nc2ccccc2N1,1100
6,Cc1cccc(-c2nc(C3CCN(C(=O)C(NC(=O)c4ccco4)C(C)C)CC3)no2)c1 (stereo not given),1010
7,COc1ccc(-c2nc3n(n2)C2(CCCCC2)[C@@H]2CCCC[C@@H]2N3C(=O)c2cccs2)cc1,1270
8,CCC(c1cccs1)N1C(=O)[C@H]2CN(S(=O)(=O)c3cc(C)ccc3C)C[C@H]2C1=O (stereo not given in full),1090
9,CC(C)NC(=O)c1ccc2c(c1)CCCN2S(=O)(=O)c1ccccc1,878
10,CC(C)c1cccc(NC(=O)C2CCN(C(=O)c3ncn4c3COC(c3ccccc3)C4)CC2)c1 (stereo not given),921
11,O=C(Nc1nc2c(s1)CN(S(=O)(=O)C1CC1)CC2)c1cnn(-c2ccccc2)n1,855
12,C[C@H]1CN(C(=O)c2cc(Cl)ccc2F)C[C@@H]1c1nc(-c2ccncc2)no1,857
13,O=C(Nc1cccc(F)c1)c1cc(C2CC2)on1,956
14,Cc1nnsc1C(=O)N1CCN(c2nc3ccc(OC(F)(F)F)cc3s2)CC1,903
15,Cc1ccc2c(n1)nn1c(C)cc(C)nc21,557
16,CCC1(C(=O)NCc2ccc(C)cc2)CCCCC(=O)N1 (stereo not given),707
17,CCOC(=O)c1nn(-c2ccc(F)cc2)c(=O)cc1NCC1CCCO1 (stereo not given),766
18,O=C1CC(c2ccc3c(c2)OCO3)c2c(c(C(=O)O)cn2-c2cccc(F)c2)N1 (stereo not given),777
19,COc1ccc(OC)c2c(C)cc(N3CCN(S(=O)(=O)c4ccc(C)cc4)CC3)nc12,798
20,CCCCNC(=O)c1cc(NS(=O)(=O)c2c(C)cc(C)cc2C)cnc1N1CCNCC1,661
